Test results from patent US20160287534A1, “METHODS FOR REVERSING FIBROSIS” (The University of Connecticut, priority 2015, published 2016).

Experiments:
[1] = test system: LX-2 cells; assay: qRT-PCR of TGFβ1-induced fibrogenic and TGFβ1 signaling genes in LX-2 cells; format: cell-based
Experimental: LX-2 cells were kindly provided by Dr. Scott Friedman at the Icahn School of Medicine at Mount Sinai (New York, N.Y.). Cells were maintained in low-glucose DMEM containing 2% FBS, 4 mM 1-glutamine, 100 U/mL penicillin and 100 μg/mL streptomycin in a 37° C. humidified cell culture chamber providing 5% CO2. LX-2 cells were incubated with varying concentrations of ASTX for 12 or 24 h, and subsequently activated by 2 ng/mL of TGFβ1 (Peprotech, Rocky Hill, N.J.) for 1 to 24 h. Primary mouse HSCs were plated on untreated petri dishes (BD Falcon, Franklin Lakes, N.J.) and maintained in low-glucose DMEM supplemented with 10% FBS, 4 mM L-glutamine, 100 U/mL penicillin and 100 μg/mL streptomycin in a 37° C. humidified cell culture chamber under 5% CO2. ASTX (25 μM) was added at day 2 or day 4 after plating until day 6 with daily media change. All cell culture supplies were purchased from HyClone (Thermo Scientific, Logan, Utah).
Total RNA extraction, cDNA synthesis, and qRT-PCR were conducted using a Bio-Rad CFX96 Real-Time system (Bio-Rad, Hercules, Calif.) as previously described (see Park et al. Nutr. Res. 2008, vol. 28, pp. 83-91; Rasmussen et al. J. Nutr. 2008, vol. 138, pp. 476-481). Gene sequences were obtained from the GenBank database and primers were designed using Beacon Designer (Premier Biosoft, Palo Alto, Calif.). Primer sequences are available (see supplemental table of Yang et al. Biochimica et Biophysica Acta 2015, vol. 1850, pp. 178-185).

[2] = test system: Smad3; assay: Western blot of Smad3 phosphorylation and nuclear translocation in LX-2 cells; format: cell-based
Experimental: Whole cell lysates were prepared to conduct Western blot as we previously described (Id.) using antibodies against α-SMA (Sigma, St. Louis, Mo.), Smad3 (Millipore, Billerica, Mass.), and phospho-Smad3 (Cell Signaling, Danvers, Mass.). β-Tubulin (Santa Cruz Biotechnology, Santa Cruz, Calif.) or β-actin (Sigma, St. Louis, Mo.) was used as a loading control. For Western blot of nuclear and cytoplasmic cell fractions, the fractions were prepared using a nuclear extraction kit (Cayman, Ann Arbor, Mich.) as previously described (see Ku et al. Biochim. Biophys. Acta Gen. Subj. 2013, vol. 1830, pp. 2981-2988). Glyceraldehyde 3-phosphate dehydrogenase (GAPDH) (Santa Cruz Biotechnology, Santa Cruz, Calif.) and lamin B (Santa Cruz Biotechnology) were used as a loading control for cytoplasmic and nuclear fractions, respectively. Blots were developed using Westpico horseradish peroxidase chemiluminescence (Pierce, Rockford, Ill.) and images were analyzed using a Chemidoc XRS+system (Bio-Rad) and Image Lab software (Bio-Rad).

[3] = test system: mouse primary HSCs; assay: ROS measurement in mouse primary HSCs; format: cell-based; conditions: ASTX treatment for 6 d during activation (FIG. 8A)
Experimental: Mouse primary qHSCs were seeded on an uncoated black 24-well μ-Plate (Ibidi, Verona, Wis.). At day 6 of activation, cellular ROS levels were measured using dichlorofluorescin (Sigma-Aldrich, St. Louis, Mo.) as described (Id.). The cells were then fixed with 4% formaldehyde for 10 min, and incubated with 0.1% CellTag 700 stain (Li—COR, Lincoln, Nebr.), a fluorescent stain, for cell number normalization, for 1 h. Fluorescent signals were obtained by an Odyssey® CLx Infrared Imaging System (Li—COR) and a Li—COR Image Studio software. Data were expressed as relative fluorescent intensity divided by total cell stain signal.

[4] = test system: HSCs from wild-type and Nrf2−/− mice; assay: qRT-PCR of HSCs from wild-type and Nrf2−/− mice; format: cell-based, mouse
Experimental: Mouse primary HSCs were isolated from C57BL/6J, nuclear erythroid 2-related factor 2 (NRF2) knockout (Nrf2−/−), and wild-type mice using a pronase/collagenase digestion method as described herein Example 1. The cells were then cultured on untreated petri dishes (BD Falcon, Franklin Lakes, N.J.), and maintained in a low-glucose DMEM medium supplemented with 10% FBS, 4 mM L-glutamine, and P/S (100 U/100 μg per mL). Human primary HSCs (Zen-Bio, Research Triangle Park, N.C.) were maintained in a low-glucose DMEM medium containing 2% FBS, 4 mM L-glutamine, 1× nonessential amino acids, 1× vitamins, and P/S (100 U/100 μg per mL). The cells were seeded on a collagen-coated plate for experiments (Sarstedt, Newton, N.C.). LX-2 cells, kindly provided by Dr. Scott Friedman at the Icahn School of Medicine at Mount Sinai (New York, N.Y.), were maintained in a low-glucose DMEM supplemented with 2% FBS, 4 mM L-glutamine, and P/S (100 U/100 μg per mL). All cells were cultured in a 37° C. humidified cell culture chamber with 5% CO2. Cell culture supplies were purchased from HyClone unless stated otherwise (Thermo Scientific, Logan, Utah).
ASTX, provided by Fuji Chemical Industry Co., Ltd. (Toyama, Japan), was prepared in DMSO as described herein in Example 1. After plated on an uncoated dish, mouse qHSCs were incubated with 25 μM ASTX during activation. aHSCs, which were prepared by culturing qHSCs on an uncoated dish for 6 d, were incubated with 25 μM ASTX for 2 or 4 more days. Also, cells were incubated with 3 μM tert-butyl hydrogen peroxide (tBHP, Thermo Scientific) for 12 h with or without 25 μM ASTX. Medium containing ASTX was replenished daily and DMSO vehicle control was always run in parallel. Human primary HSC were treated with 25 μM ASTX for 24 h, after which they were activated by 3 ng/mL of TGFβ1 (Peprotech, Rocky Hill, N.J.) for 24 h.
Total RNA extraction, cDNA synthesis, and qRT-PCR were conducted using a Bio-Rad CFX96 Real-Time system (Bio-Rad, Hercules, Calif.) as previously described (Id.). Primer sequences will be available upon request.

CC1=C(/C=C/C(C)=C/C=C/C(C)=C/C=C/C=C(C)/C=C/C=C(C)/C=C/C2=C(C)C(=O)C(O)CC2(C)C)C(C)(C)CC(O)C1=O (centres unmarked) [ASTX, astaxanthin]
induction of α-SMA mRNA by TGFβ1 ([1]; 25 μM ASTX, 3 and 12 h of TGFβ1 stimulation (FIG. 2A)): significantly inhibited
induction of Col1A1 mRNA by TGFβ1 ([1]; 25 μM ASTX, 12 h of TGFβ1 stimulation (FIG. 2A)): significantly inhibited
induction of the fibrogenic genes by TGFβ1 ([1]; 10 and 25 μM ASTX, TGFβ1 24 h (FIG. 2B)): significantly inhibited
TGFβ-induced increases in mRNA levels of TβRI and TβRII ([1]; LX-2 cells, 25 μM ASTX (FIG. 5C)): almost completely abolished
TGFβ1-induced expression of α-SMA and Col1A1 mRNA ([1]; LX-2 cells, 25 μM ASTX, 2 ng/mL TGFβ1 24 h (FIG. 3A)): significantly attenuated
TGFβ1-induced increase in mRNA levels of Smad2, Smad3 and Smad7 ([1]; LX-2 cells, 25 μM ASTX, TGFβ1 12 h (FIG. 5C)): abolished or significantly attenuated
basal expression levels of α-SMA and Col1A1 mRNA ([1]; LX-2 cells, 25 μM ASTX, no TGFβ1 (FIG. 3A)): did not alter
TGFβ1-induced NOX4 mRNA levels ([1]; LX-2 cells, P=0.074): decreased TGFβ1-induced NOX4 mRNA levels although it did not reach statistical significance
TGFβ1-induced phosphorylation of Smad3 ([2]; 25 μM ASTX (FIG. 5A)): significantly inhibited
nuclear translocation of Smad3 ([2]; 25 μM ASTX (FIG. 5B)): reduced
cellular ROS levels [3]: significantly lowered
α-SMA and Col1A1 mRNA ([4]; both wild-type and Nrf2−/− HSCs, activated 6 d with ASTX (FIG. 8C)): able to decrease
tBHP-increased α-SMA expression ([4]; both wild-type and Nrf2−/− HSCs, tBHP at day 6 for 12 h (FIG. 8D)): attenuated
NRF2 expression ([4]; wild-type HSCs (FIG. 8D)): significantly decreased
